{"source": "patent US12459915B2", "about": "“Biaryl derivative useful as diacylglycerol acyltransferase 2 inhibitor, and use thereof” (LG CHEM, LTD., priority 2020, dated 2025)", "molecular_target": "Recombinant human DGAT2 protein (Homo sapiens (Human), UniProt Q96PD7)", "sequence (Q96PD7 whole entry)": "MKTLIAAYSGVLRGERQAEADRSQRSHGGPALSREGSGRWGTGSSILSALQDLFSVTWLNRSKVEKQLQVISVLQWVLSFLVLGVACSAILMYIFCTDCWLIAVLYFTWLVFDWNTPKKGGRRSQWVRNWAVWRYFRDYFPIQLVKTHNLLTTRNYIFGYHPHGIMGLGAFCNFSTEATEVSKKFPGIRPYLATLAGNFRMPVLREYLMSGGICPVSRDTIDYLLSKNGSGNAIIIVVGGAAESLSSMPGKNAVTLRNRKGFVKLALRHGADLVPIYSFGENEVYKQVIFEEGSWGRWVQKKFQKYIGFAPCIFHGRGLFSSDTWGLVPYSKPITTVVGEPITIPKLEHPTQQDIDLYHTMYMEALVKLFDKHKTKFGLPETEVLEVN", "assay": "Measurement of inhibitory effect against DGAT2 enzyme activity (SPA, Phospholipid Flash Plate)", "assay_type": "biochemical", "details": "DGAT2-membrane protein from Sf-21 cells, [14C] oleoyl CoA, 1,2 sn-oleoyl glycerol, 37° C.; read-out: IC50 (concentration of the compound that inhibits TG production by 50%)", "procedure": "In order to prepare the pBacPAK9-DGAT2, which is DGAT2 expression vector, the human DGAT2 gene amplified by polymerase chain reaction (PCR) was cloned into the EcoR1 and Xho1 sites of the pBacPAK9 (clonctech) vector. The nucleotide sequence of the primers used in PCR was the forward primer 5′ […] and the reverse primer 5′ […]. The composition of the reaction solution was to contain 50 ng of cDNA clone (OriGene), 200 μM of dATP, dCTP, dTTP, dGTP, 200 nM of each primer, 1 unit of Tag DNA Polymerase (Toyobo), 1×PCR buffer, and the final volume was adjusted to 20 μl. […]\nRecombinant human DGAT2 protein was expressed in Sf-21 cells, which are insect cells, by using the BacPack baculovirus expression system (Clontech). […] Protein concentration was quantified by using the BCA Protein Assay Kit (Thermo Scientific).\nIn vitro DGAT2 analysis was performed using a Phospholipid Flash Plate (PerkinElmer) based on the principle of SPA (Scintilation Proximity Assay). […] The next day, the amplified scintillation signal (cpm) in Topcounter (Packard) was measured to measure the degree of production of [14C]-labeled triacyl glycerol (TG) as a reaction product. The measured value when the compound was not treated was used as a positive control, and the measured value of the compound treated group was calculated as a relative % to measure the inhibition effect of the compound on TG production. […]"}
{"compound": "CCOc1ccccc1Oc1cccc(-c2cncc(NC(=O)Cc3ccc(CC(=O)O)cc3)n2)c1", "note": "[Example 11, 2-(4-(2-((6-(3-(2-ethoxyphenoxy)phenyl)pyrazin-2-yl)amino)-2-oxoethyl)phenyl)acetic acid]", "values": [{"measurement": "IC50", "result": 0.37, "unit": "µM"}]}
